Patent publication US10294246B2, “Substituted boronic acids and boronate esters as immunoproteasome inhibitors” (MERCK PATENT GMBH, priority 2014, dated 2019)

Tests used:
[1] = molecular target: human immunoproteasome (LMP7) (Homo sapiens (Human), UniProt P28062); test: Determination of LMP7 activity (fluorescence intensity assay, Suc-LLVY-AMC); type: biochemical
How it was run: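 0.25 nM purified human immunoproteasome preincubated 20 min at 25 °C with serially diluted compounds in 50 mM Tris pH 7.4, 0.03% SDS, 1 mM EDTA, 1% DMSO. Reaction started with 40 μM Suc-LLVY-AMC, run 60 min at 37 °C. Fluorescence read at ex 350/em 450 nm.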

[2] = molecular target: human constitutive proteasome (Beta5) (Homo sapiens (Human), UniProt P28074); test: Determination of Beta5 activity (fluorescence intensity assay, Suc-LLVY-AMC); type: biochemical; settings: purified human constitutive proteasome 1.25 nM, Suc-LLVY-AMC 40 μM
How it was run: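 Purified constitutive proteasome (1.25 nM) was preincubated with compounds 20 min at 25 °C in 50 mM Tris pH 7.4, 0.03% SDS, 1 mM EDTA, 1% DMSO. Suc-LLVY-AMC (40 μM) was then added for 60 min at 37 °C. AMC fluorescence was read at ex 350/em 450 nm.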

[3] = molecular target: LMP7 subunit of the immunoproteasome (Homo sapiens (Human), UniProt P28062); settings: Singh et al., Br. J. Hematology 152(2): 155-163; cited from earlier work

| Structure (SMILES) | Selectivity LMP7 vs Beta5 ([1]; LMP7 versus Beta5) | IC50 ([1]; purified human immunoproteasome 0.25 nM, Suc-LLVY-AMC 40 μM) [nM] | IC50 [2] [nM] | selectivity for the LMP7 subunit of the immunoproteasome [3] [fold] |
| --- | --- | --- | --- | --- |
| O=C(CCOc1ccccc1)N[C@@H](C[C@@H]1COc2ccccc21)B(O)O [Compound No. 136, [(1R)-2-[(3S)-2,3-dihydrobenzofuran-3-yl]-1-(3-phenoxypropanoylamino)ethyl]boronic acid] | +++++ (Selectivity ≥ 100) | < 50 | 50 to 500 |  |
| CC1=C(C(=O)N[C@H](C)C(=O)N[C@@H](Cc2c[nH]c3ccccc23)C(=O)N[C@@H](Cc2ccccc2)C(=O)[C@@]2(C)CO2)Cc2ccccc21 [PR-924] |  |  |  | 100 |
